In ChEMBL document CHEMBL3792317, “Novel tetrazoloquinoline-rhodanine conjugates: Highly efficient synthesis and biological evaluation” (Bioorg Med Chem Lett, 2016):
Values after ≈ are worked out from the molar mass of the structure shown.

Key:
[1] = test system: Mycobacterium tuberculosis; assay: Antitubercular activity against Mycobacterium tuberculosis H37Ra ATCC 25177 at 3 ug/ml incubated for 40 mins by XTT Reduction Menadione Assay; format: functional; details: H37Ra ATCC 25177, 40 min, read-out: GI
[2] = test system: Mycobacterium tuberculosis; assay: Antitubercular activity against active Mycobacterium tuberculosis H37Ra ATCC 25177 incubated for 40 mins by XTT Reduction Menadione Assay; format: functional; details: H37Ra ATCC 25177, 40 min
[3] = test system: Mycobacterium tuberculosis; assay: Antitubercular activity against Mycobacterium tuberculosis H37Ra ATCC 25177 at 30 ug/ml incubated for 40 mins by XTT Reduction Menadione Assay; format: functional; details: H37Ra ATCC 25177, 40 min, read-out: GI
[4] = test system: Staphylococcus aureus; assay: Antibacterial activity against Staphylococcus aureus after 18 hrs by broth dilution method; format: functional
[5] = test system: Mycobacterium bovis BCG str. ATCC 35743; assay: Antitubercular activity against dormant Mycobacterium bovis BCG ATCC 35743 at 3 ug/ml incubated for 40 mins by XTT Reduction Menadione Assay; format: functional
[6] = test system: Pseudomonas fluorescens; assay: Antibacterial activity against Pseudomonas fluorescens after 18 hrs by broth dilution method; format: functional
[7] = test system: Aspergillus niger; assay: Antifungal activity against Aspergillus niger NCIM 1196 after 48 hrs by agar cup plate method; format: functional; details: NCIM 1196, 48 h
[8] = test system: Bacillus subtilis; assay: Antibacterial activity against Bacillus subtilis after 18 hrs by broth dilution method; format: functional
[9] = Cytotoxicity against human PANC1 cells after 48 hrs by MTT assay; format: cell-based, PANC-1; details: for GI50 at 48 h: PANC1 cells; for GI90: panc-1, 48 h
[10] = test system: Candida albicans; assay: Antifungal activity against Candida albicans NCIM 3471 after 48 hrs by agar cup plate method; format: functional; details: NCIM 3471, 48 h
[11] = test system: Mycobacterium tuberculosis; assay: Antitubercular activity against dormant Mycobacterium tuberculosis H37Ra ATCC 25177 incubated for 40 mins by XTT Reduction Menadione Assay; format: functional; details: H37Ra ATCC 25177, 40 min
[12] = Cytotoxicity against human THP1 cells after 48 hrs by MTT assay; format: cell-based, THP-1; details: for GI50 at 48 h: THP1 cells; for GI90: thp-1, 48 h
[13] = test system: Fusarium oxysporum; assay: Antifungal activity against Fusarium oxysporum NCIM 1332 after 48 hrs by agar cup plate method; format: functional; details: NCIM 1332, 48 h
[14] = Antitubercular activity against Mycobacterium bovis BCG ATCC 35743 incubated for 40 mins by XTT Reduction Menadione Assay; format: functional, Mycobacterium bovis BCG str. ATCC 35743; details: Mycobacterium tuberculosis variant bovis BCG, ATCC 35743, 40 min
[15] = test system: Cryptococcus neoformans; assay: Antifungal activity against Cryptococcus neoformans NCIM 576 after 48 hrs by agar cup plate method; format: functional; details: NCIM 576, 48 h
[16] = test system: Mycobacterium bovis BCG str. ATCC 35743; assay: Antitubercular activity against dormant Mycobacterium bovis BCG ATCC 35743 at 10 ug/ml incubated for 40 mins by XTT Reduction Menadione Assay; format: functional
[17] = test system: Aspergillus flavus; assay: Antifungal activity against Aspergillus flavus NCIM 539 after 48 hrs by agar cup plate method; format: functional; details: NCIM 539, 48 h
[18] = test system: A549; assay: (§1) Cytotoxicity against human A549 cells after 48 hrs by MTT assay; format: cell-based; details: a549, 48 h
[19] = as §1; format: cell-based; details: A549 cells
[20] = test system: HeLa; assay: (§2) Cytotoxicity against human HeLa cells after 48 hrs by MTT assay; format: cell-based; details: hela, 48 h
[21] = as §2; format: cell-based; details: HeLa cells
[22] = test system: Escherichia coli; assay: Antibacterial activity against Escherichia coli after 18 hrs by broth dilution method; format: functional
[23] = test system: Mycobacterium tuberculosis; assay: Antitubercular activity against Mycobacterium tuberculosis H37Ra ATCC 25177 at 10 ug/ml incubated for 40 mins by XTT Reduction Menadione Assay; format: functional; details: H37Ra ATCC 25177, 40 min, read-out: GI
[24] = test system: Mycobacterium tuberculosis; assay: Antitubercular activity against Mycobacterium tuberculosis H37Ra ATCC 25177 incubated for 40 mins by XTT Reduction Menadione Assay; format: functional; details: H37Ra ATCC 25177, 40 min
[25] = test system: Mycobacterium bovis BCG str. ATCC 35743; assay: Antitubercular activity against dormant Mycobacterium bovis BCG ATCC 35743 at 30 ug/ml incubated for 40 mins by XTT Reduction Menadione Assay; format: functional

| Structure (SMILES) | inhibition of growth at 3 µg/mL [1] | inhibition of growth at 30 µg/mL [3] | MIC [4] | growth inhibition (GI) [5] | MIC [6] | MIC [7] | MIC [8] | MIC [10] | MIC [13] | MIC [14] | MIC [15] | growth inhibition (GI) [16] | MIC [17] | MIC [22] | inhibition of growth at 10 µg/mL [23] | MIC [24] | growth inhibition (GI) [25] | also measured |
| --- | --- | --- | --- | --- | --- | --- | --- | --- | --- | --- | --- | --- | --- | --- | --- | --- | --- | --- |
| Cc1cccc2cc(/C=C3\SC(=S)NC3=O)c3nnnn3c12 | -9.62% | 40.3% | 127 µg/mL (≈ 388 µM) | 64% | 148 µg/mL (≈ 451 µM) | 25 µg/mL (≈ 76.4 µM) | 88.8 µg/mL (≈ 271 µM) | 25 µg/mL (≈ 76.4 µM) | 100 µg/mL (≈ 305 µM) | > 250 µg/mL | 75 µg/mL (≈ 229 µM) | 63.3% | 50 µg/mL (≈ 153 µM) | 173 µg/mL (≈ 529 µM) | 16.7% | 148 µg/mL (≈ 453 µM) | 82.4% | IC90 [2]: > 250 µg/mL; GI50 at 48 h [9]: > 100 µg/mL; GI90 [9]: > 100 µg/mL; IC90 [11]: 148 µg/mL (≈ 453 µM); GI50 at 48 h [12]: > 100 µg/mL; GI90 [12]: > 100 µg/mL; GI90 [18]: > 100 µg/mL; GI50 at 48 h [19]: > 100 µg/mL; GI90 [20]: > 100 µg/mL; GI50 at 48 h [21]: > 100 µg/mL |
| CC1(C)S[C@@H]2[C@H](NC(=O)[C@H](N)c3ccccc3)C(=O)N2[C@H]1C(=O)O [AMPICILLIN] |  |  | 1 µg/mL (≈ 2.86 µM) |  | 4.36 µg/mL (≈ 12.5 µM) |  | 10.3 µg/mL (≈ 29.5 µM) |  |  |  |  |  |  | 1.46 µg/mL (≈ 4.18 µM) |  |  |  |  |
| O=C1NC(=S)S/C1=C\c1cc2ccccc2n2nnnc12 | 34% | 51.8% | 153 µg/mL (≈ 487 µM) | -8.27% | 186 µg/mL (≈ 593 µM) | 100 µg/mL (≈ 319 µM) | 204 µg/mL (≈ 652 µM) | 150 µg/mL (≈ 479 µM) | 150 µg/mL (≈ 479 µM) | 168 µg/mL (≈ 536 µM) | 75 µg/mL (≈ 239 µM) | -5.07% | 125 µg/mL (≈ 399 µM) | 212 µg/mL (≈ 677 µM) | 71% | 162 µg/mL (≈ 515 µM) | -15.7% | IC90 [2]: > 250 µg/mL; GI50 at 48 h [9]: > 100 µg/mL; GI90 [9]: > 100 µg/mL; IC90 [11]: 162 µg/mL (≈ 515 µM); GI50 at 48 h [12]: > 100 µg/mL; GI90 [12]: > 100 µg/mL; GI90 [18]: > 100 µg/mL; GI50 at 48 h [19]: 79.2 µg/mL (≈ 253 µM); GI90 [20]: > 100 µg/mL; GI50 at 48 h [21]: > 100 µg/mL |
| COc1ccc2c(c1)cc(/C=C1\SC(=S)N(CC(=O)O)C1=O)c1nnnn12 | 7.3% | 38% |  | -9.36% |  | 50 µg/mL (≈ 125 µM) |  | 50 µg/mL (≈ 125 µM) | 100 µg/mL (≈ 249 µM) | > 250 µg/mL | 150 µg/mL (≈ 374 µM) | 32.1% | 150 µg/mL (≈ 374 µM) |  | 0.62% | > 250 µg/mL | 49.8% |  |
| NC[C@H]1O[C@H](O[C@H]2[C@H](O)[C@@H](O[C@H]3O[C@H](CO)[C@@H](O)[C@H](N)[C@H]3O)[C@H](N)C[C@@H]2N)[C@H](O)[C@@H](O)[C@@H]1O [KANAMYCIN] |  |  | > 30 µg/mL |  | 0.49 µg/mL (≈ 1.01 µM) |  | 1.35 µg/mL (≈ 2.79 µM) |  |  |  |  |  |  | 1.62 µg/mL (≈ 3.34 µM) |  |  |  |  |
| Cc1cccc2cc(/C=C3\SC(=S)N(CCC(=O)O)C3=O)c3nnnn3c12 | -0.39% | 36.9% |  | -8.42% |  | 75 µg/mL (≈ 188 µM) |  | 100 µg/mL (≈ 250 µM) | 100 µg/mL (≈ 250 µM) | 198 µg/mL (≈ 495 µM) | 50 µg/mL (≈ 125 µM) | -11.4% | 50 µg/mL (≈ 125 µM) |  | 15.5% | 192 µg/mL (≈ 481 µM) | -8.69% |  |
| Cc1ccc2c(c1)cc(/C=C1\SC(=S)N(CCC(=O)O)C1=O)c1nnnn12 | 1.75% | 44.7% |  | 16.2% |  | 25 µg/mL (≈ 62.6 µM) |  | 100 µg/mL (≈ 250 µM) | 75 µg/mL (≈ 188 µM) | 51.3 µg/mL (≈ 128 µM) | 50 µg/mL (≈ 125 µM) | 13.7% | 75 µg/mL (≈ 188 µM) |  | 31.6% | 50.5 µg/mL (≈ 126 µM) | 46.4% |  |
